The source of these data is patent US20070207154A1, “METHOD OF MODULATING VASCULARIZATION” (priority 2004, published 2007).

The subject of this test is sprouting from wild-type, TFΔCT and PAR-2-deficient aortas. As to the kind of experiment: ex vivo angiogenesis assay (aortic ring sprouting in Matrigel). The class given is cell-based, mouse. The settings on record: for sprouting induced by single factor replacing serum: wild-type and TFΔCT aortas, EGM without serum, day 4, growth factors 20 ng/ml, VIIa 50 nM (FIG. 2c). The protocol: Angiogenesis assays. The ex vivo angiogenesis assay was adopted from the rat aortic sprouting model described by Masson et al. Biol. Proced. […] Thoracic aortas from 8-11 week old wild-type, TFΔCT, PAR-2-deficient, and TFΔCT/PAR-2-deficient mice of either sex were embedded in Matrigel, and overlaid with EGM supplemented with 5% serum, growth factors, or inhibitors at the following concentrations: VEGF, bFGF, and PDGF: 20 ng/ml; hirudin: 500 nM, VIIai: […], NAPc2: […], NAP5: 1 μM, VIIa: 50 nM. In most cases, the number of aortic sprouts was determined at day 3 and 4 without knowledge of the genotype. Aortic ring RNA was isolated by Trizol (Invitrogen) extraction using standard procedures, digested with DNAaseI, followed by RT-PCR for β-actin and TF. […] Tests used 2 different virus doses, referred to as high (1.1×10^10 virus particles/ml) and low (5×10^9 particles/ml). For confocal fluorescence microscopy, aortic pieces with a minimum of surrounding Matrigel were fixed with 4% paraformaldehyde and methanol, incubated with primary and secondary antibodies (24 hours each), and mounted in anti-fade medium (Vector laboratories). Alternatively, cryosections of OCT-embedded aortas were fixed with acetone and stained as described above.

As for hirudin [reference compound], the “effect of protease inhibitor on aortic sprouting” value (wild-type and TFΔCT aortas in serum, 3 days, hirudin 500 nM, NAP5 1 μM (FIG. 2b)) is given as “no effect on sprouting”. Regarding bFGF: pro-angiogenic growth factor, the “sprouting induced by single factor replacing serum” value (shortened to “sprouting induced”) was “None of these factors promoted substantial sprouting”.

On to VEGF, for which the “sprouting induced” value is given as “None of these factors promoted substantial sprouting”. For the same substance, the “sprouting of aortas stimulated with VEGF in the absence of serum” value (VEGF 20 ng/ml, no serum, day 3 (FIG. 2a)) was “very limited sprouting”. The “difference in sprouting TFΔCT versus wild-type aortas with serum supplemented with VEGF” value (serum plus VEGF 20 ng/ml, day 3 (FIG. 2a)) is reported as “did not abolish the difference in sprouting”. For the substance “PDGF-AA: selective agonist for PDGF receptor a”, the “sprouting induced” value is “None of these factors promoted substantial sprouting”.
